Experimental data taken from patent US20020049151A1, “Therapeutic approaches to diseases by suppression of the NURR subfamily of nuclear transcription factors” (priority 2000, published 2002).

Experiments:
[1] = tested on: CRH mRNA; assay: RT-PCR of CRH mRNA in primary human synoviocytes; format: cell-based; settings: primary RA and PsA synoviocytes, 6 h; 10 ng/ml IL-1β, IL-6, TNF, 1 μM PGE2, MoCM; mean +/−SE
Excerpt: To identify the origin of the cells that express CRH, the expression of CRH mRNA in isolated primary human synoviocyte cells was investigated. Synoviocytes are an important source and target cell for IL-1β, TNFα and PGE2 action within inflamed synovial tissue (Bucala et al., 1991). Moreover, these pro-inflammatory agents are important mediators in the pathogenesis of human synovial hyperplasia and cartilage destruction (MacNaul et aL., 1990). […] Representative examples of PCR products generated using synoviocytes maintained under normal conditions (Con), or exposed to 10 ng/ml IL-1β, IL-6, TNF, 1 μM PGE2, MoCM or 25 μM forskolin (FOR) for 6 h. Results were obtained from three separate experiments, using both RA and PsA cell lines. Values shown are the mean +/−SE. The symbol * indicates P<0.01 compared to control. PCR products generated were confirmed by Southern blot analysis using CDNA probes for human CRH and GAPDH.
The regulation of hypothalamic CRH gene expression by activation of adenylate cyclase/protein kinase A signaling pathway has previously been established (Guardiola-diaz et al., 1994). The ability of forskolin (FOR), an adenylate cyclase activating agent, was tested for stimulatory effects on CRH gene expression in primary synoviocytes. […] To determine regulatory signals of peripheral CRH expression the ability of pro-inflammatory agonists to regulate endogenous CRH MRNA was examined. […] Next, a comparison of the ability of individual pro-inflammatory mediators to induce CRH mRNA was performed. […] Levels of GAPDH mRNA remained relatively constant under all conditions tested (FIG. 1D).
Synovial tissue was treated for 4 h with 1 mg/ml collagenase (type I; Worthington Biochemical, Freehold, N.J.) in RPMI at 37° C. in 5% CO2. Dissociated cells were plated in RPMI supplemented with 10% fetal calf serum (GibcoBRL, Paisley, UK), penicillin (100 U/ml), streptomycin (100 U/ml) and fungizone (0.25 μg/ml). […] Twenty-four hours before transfection, 1×10^6 synoviocyte cells were plated in 25 cm^2 dishes and allowed to attach. […] Chloramphenicol acetyl transferase (CAT) levels were measured using a CAT ELISA (Boehringer Mannheim, Germany). Protein concentrations were determined by the Bradford assay (BioRad, Richmond, Calif.). […]

[2] = tested on: CRH NBRE; assay: EMSA of synoviocyte nuclear extracts with CRH NBRE; format: cell-based, human; settings: synoviocytes stimulated 1 h; 25 μM forskolin, 10 ng/ml TNFα, IL-1β or PGE2
Procedure: To analyze the effects of cytokines on the ability of NURR1 to bind DNA, EMSA was performed to examine the binding properties of NURR1 to the consensus sequence (NBRE) in the human CRH promoter. […] Binding of the larger protein complex, and to a lesser extent the smaller complex, was inhibited by 50× molar excess of unlabeled homologous oligonucleotide.
Nuclear extracts from untreated, 25 μM forskolin (FOR) or lOng/ml TNFα treated synoviocytes (1 h) were compared for increased binding to the α^32 P-labeled CRH NBRE. DNA-protein interactions were assayed in the presence of 50× molar excess of homologous oligonucleotide or NURR1 specific antiserum (NURR1 Ab).
Nuclear protein extracts were prepared as previously described (Murphy and Conneely, 1997). For the EMSAs, 1 μg of nuclear extract was incubated for 20 mins in the presence of 20 mM Hepes (pH 7.9), 5 mM MgCl2, 20% glycerol, 100 mM KCL, 0.2 mM EDTA, 8% Ficoll, […], 500 ng/μl poly (deoxyinosinicdeoxycytidylic) acid, 50 mM dithiothreitol (DTT) and [α-^32P]-dCTP labeled doublestranded oligonucleotide. For supershifts experiments, antibodies to NURR1 (Santa Cruz Biotechnology, Santa Cruz, Calif.) were added following the initial 20-minute incubation, then incubated for an additional 20 minutes. The samples were electrophoresed through a 5.5% non-denaturing polyacrylamide gel in 0.5× TrisBorate-EDTA (TBE) buffer. For competition studies, the reaction was performed as described with the indicated concentrations of unlabeled probe. The oligonucleotide CRH NBRE 5′-[…]-3′ (SEQ ID NO:152) was used in the mobility shift assay.

Row | Molecule | CRH mRNA expression, fold stimulation [1] | binding of nuclear protein complexes with the CRH NBRE [2]
1 | CCCCC[C@H](O)/C=C/[C@H]1[C@H](O)CC(=O)[C@@H]1C/C=C\CCCC(=O)O [PGE2, reference compound] | 3.85+/−1.5 fold | significant increased binding
2 | IL-1β: pro-inflammatory cytokine | 2.3+/−1.0 fold | significant increased binding
3 | IL-6: pro-inflammatory cytokine | 1.5+/−1.2 fold | –
4 | TNFα | 3.6+/−2.0 fold | significant increased binding
